Measurements: US6489321B1, “Nonpeptide substituted benzothiazepines as vasopressin antagonists” (Ortho-McNeil Pharmaceutical, Inc., priority 1999, dated 2002)

Experiments:
vasopressin V1a receptor = vasopressin V1a receptor (Homo sapiens, UniProt P37288); assay: In-vitro vasopressin receptor binding assay, V1a; conditions: for IC50: footnote 1: IC50 values (μM)
cloned human V2 receptor = molecular target: T1, cloned human V2 receptor (Homo sapiens, UniProt P30518); assay: In-vitro vasopressin receptor binding assay, V2; conditions: 3H-arginine-8-vasopressin; for IC50: footnote 1: IC50 values (μM)
T1 construct: expressed in transfected cells
Description: Assay buffer is 50 mM Tris-Cl, 5 mM MgC12, 0.1% BSA (pH 7.5) containing 5 ug/ml of aprotinin, leupeptin, pepstatin, 50 ug/ml bacitracin, and 1 mM Pefabloc. H3 vasopressin is ^3H-arginine-8-vasopressin (68.5 Ci/mmol, final concentration in assay is 0.65-0.75nM). Into wells of 96-well round bottom polypropylene plates are added buffer, test compound, membrane (containing cloned human V2 receptor), and H3 vasopressin. The reaction plates are allowed to sit at room temperature for one hour. The samples are filtered through Unifilter GF/C plates (presoaked in 0.3 polyethyleneimine). The plates are washed 5 times with cold physiological saline containing 0.05% Tween 20. After drying, the bottom of the filter plates are sealed and 0.025 ml of Microscint-20 is added to each filter. The top of the plate is sealed, and the plate is counted. Non-specific binding is determined by the addition of 1.25 uM arginine-8-vasopressin in those wells. %Inh. is [formula]

[1] = 0.1 μM test compound, read-out: Receptor Binding (% Inh. @ concentration in μM) V1a

Sequence of vasopressin V1a receptor (P37288 whole entry): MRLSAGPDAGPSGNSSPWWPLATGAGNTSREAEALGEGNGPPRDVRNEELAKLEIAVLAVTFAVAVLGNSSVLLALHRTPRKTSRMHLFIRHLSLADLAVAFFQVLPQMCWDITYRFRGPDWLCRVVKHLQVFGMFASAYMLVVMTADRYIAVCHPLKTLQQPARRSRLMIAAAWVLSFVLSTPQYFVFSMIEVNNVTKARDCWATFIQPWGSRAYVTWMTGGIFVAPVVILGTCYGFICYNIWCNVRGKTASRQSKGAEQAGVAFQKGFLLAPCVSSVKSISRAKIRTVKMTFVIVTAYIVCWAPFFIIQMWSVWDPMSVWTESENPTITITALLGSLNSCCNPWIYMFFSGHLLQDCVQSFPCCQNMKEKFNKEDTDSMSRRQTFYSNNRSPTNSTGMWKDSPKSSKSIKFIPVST

O=C(Nc1ccc(C(=O)N2CCC(CCO)S(=O)(=O)c3ccccc32)cc1)c1ccccc1-c1ccccc1 (stereo not drawn) [Compound 35, 2-(2-Hydroxyethyl)-1-dioxo-5-(4-(2-phenylbenzoylamino)-benzoyl)-1,5-benzothiazepine]
Receptor Binding (% Inh. @ concentration in μM) V1a (vasopressin V1a receptor; 0.1 μM test compound): 2% @ .1 | Receptor Binding (% Inh. @ concentration in μM) V2 (cloned human V2 receptor; 0.1 μM test compound): 20% @ .1

2-(2-Methanesulfonylethyl)-5-[(4-(2-phenylbenzoylamino)benzoyl)]-1,5-benzothiazepine [Compound 16]
IC50 (vasopressin V1a receptor): 1.2 µM | IC50 (cloned human V2 receptor): 0.013 µM

N#CCCC1CCN(C(=O)c2ccc(NC(=O)c3ccccc3-c3ccccc3)cc2)c2ccccc2S1 (stereo not drawn) [Compound 30]
Receptor Binding (% Inh. @ concentration in μM) V1a (vasopressin V1a receptor; 0.1 μM test compound): 34% @ .1 | IC50 (cloned human V2 receptor): 0.069 µM

2-(2-Hydroxyethyl)-5-(4-aminobenzenesulfonyl)-1,5-benzothiazepine [Compound 4]
Receptor Binding (% Inh. @ concentration in μM) V1a (vasopressin V1a receptor; 10 μM test compound): 21% @ 10 | Receptor Binding (% Inh. @ concentration in μM) V2 (cloned human V2 receptor; 10 μM test compound): 20% @ 10

Cc1ccccc1C(=O)Nc1ccc(S(=O)(=O)N2CCC(CCN3CCOCC3)Sc3ccccc32)cc1 (stereo not drawn) [Compound 3, 2-[2-(N-Morpholino)-ethyl]-5-[4-(2-methylbenzoylamino)-benzenesulfonyl]-1,5-benzothiazepine]
Receptor Binding (% Inh. @ concentration in μM) V1a (vasopressin V1a receptor; 25 μM test compound): 47% @ 25 | Receptor Binding (% Inh. @ concentration in μM) V2 (cloned human V2 receptor; 25 μM test compound): 37% @ 25

O=C(Nc1ccc(C(=O)N2CCC(CCS(=O)(=O)O)Sc3ccccc32)cc1)c1ccccc1-c1ccccc1 (stereo not drawn) [Compound 32, 2-Ethyl[5-[4-(2-phenylbenzoylamino)benzoyl]-1,5-benzothiazepin]sulfonic Acid]
inhibition at 0.1 µM (vasopressin V1a receptor; [1]): 10% | IC50 (cloned human V2 receptor): 0.012 µM

Cc1ccccc1C(=O)Nc1ccc(C(=O)N2CCC(CCO)Sc3ccccc32)cc1 (stereo not drawn) [Compound 18]
IC50 (vasopressin V1a receptor): 0.041 µM | IC50 (cloned human V2 receptor): 0.048 µM

2-(2-Hydroxyethyl)-5-[4-(3,4-dichlorobenzoylamino)benzene-sulfonyl]-1,5-benzothiazepine [Compound 10]
Receptor Binding (% Inh. @ concentration in μM) V1a (vasopressin V1a receptor; 10 μM test compound): 0% @ 10 | IC50 (cloned human V2 receptor): 2.1 µM

2-[N-(tert-butoxycarbonyl)-ethyl]-5-[4-(2-methylbenzoylamino)-benzyl]-1,5-benzothiazepine-4-one [Compound 6]
Receptor Binding (% Inh. @ concentration in μM) V1a (vasopressin V1a receptor; 10 μM test compound): 13% @ 10 | Receptor Binding (% Inh. @ concentration in μM) V2 (cloned human V2 receptor; 10 μM test compound): 22% @ 10

2-(2-Methanesulfonylethyl)-5-[(4-(2-phenylbenzoylamino)-benzyl)]-1,5-benzothiazepin-4-one [Compound 21]
Receptor Binding (% Inh. @ concentration in μM) V1a (vasopressin V1a receptor; 0.1 μM test compound): 5% @ 0.1 | Receptor Binding (% Inh. @ concentration in μM) V2 (cloned human V2 receptor; 0.1 μM test compound): 1% @ 0.1

2-(2-Hydroxyethyl)-5-(4-(2-phenylbenzoylamino)benzoyl)-1,5-benzothiazepine [Compound 27]
IC50 (vasopressin V1a receptor): 0.091 µM | IC50 (cloned human V2 receptor): 0.014 µM

2-(2-Methanesulfonylethyl)-5-[(4-(2-phenylbenzoylamino)-benzenesulfonyl)]-1,5-benzothiazepine [Compound 20]
Receptor Binding (% Inh. @ concentration in μM) V1a (vasopressin V1a receptor; 1 μM test compound): 24% @ 1 | Receptor Binding (% Inh. @ concentration in μM) V2 (cloned human V2 receptor; 1 μM test compound): 6% @ 1

O=C(Nc1ccc(CN2C(=O)CC(CCO)Sc3ccccc32)cc1)c1ccccc1-c1ccccc1 (stereo not drawn) [Compound 23, 2-(2-Hydroxyethyl)-5-(4-(2-phenylbenzoylamino)benzyl)-1,5-benzothiazepine-4-one]
Receptor Binding (% Inh. @ concentration in μM) V1a (vasopressin V1a receptor; 1 μM test compound): 33% @ 1 | Receptor Binding (% Inh. @ concentration in μM) V2 (cloned human V2 receptor; 1 μM test compound): 43% @ 1

O=CCC1CCN(C(=O)c2ccc(NC(=O)c3ccccc3-c3ccccc3)cc2)c2ccccc2S1 (stereo not drawn) [Compound 25, 2-[5-[4-(2-Phenylbenzoylamino)benzoyl]-1,5-benzothiazepine]acetaldehyde]
inhibition at 1 µM (vasopressin V1a receptor; 1 μM test compound, read-out: Receptor Binding (% Inh. @ concentration in μM) V1a): 30% | IC50 (cloned human V2 receptor): 0.014 µM

O=C(Nc1ccc(S(=O)(=O)N2CCC(CCO)Sc3ccccc32)cc1)c1ccccc1-c1ccccc1 (stereo not drawn) [Compound 19, 2-(2-Hydroxyethyl)-5-[4-(2-phenylbenzoylamino)-benzenesulfonyl]-1,5-benzothiazepine]
Receptor Binding (% Inh. @ concentration in μM) V1a (vasopressin V1a receptor; 1 μM test compound): 34% @ 1 | Receptor Binding (% Inh. @ concentration in μM) V2 (cloned human V2 receptor; 1 μM test compound): 27% @ 1

CC(C)(N)C(=O)NCCC1CCN(C(=O)c2ccc(NC(=O)c3ccccc3-c3ccccc3)cc2)c2ccccc2S1.Cl (stereo not drawn) [Compound 39, 2-[2-Amino-2-methylpropionamido]-ethyl-5-[4-(2-phenylbenzoylamino)benzoyl]-1,5-benzothiazepine Hydrochloride]
Receptor Binding (% Inh. @ concentration in μM) V1a (vasopressin V1a receptor; concentration not given): 0% | IC50 (cloned human V2 receptor): 0.017 µM

Cc1ccccc1C(=O)Nc1ccc(S(=O)(=O)N2CCC(CCO)Sc3ccccc32)cc1 (stereo not drawn) [Compound 5]
Receptor Binding (% Inh. @ concentration in μM) V1a (vasopressin V1a receptor; 10 μM test compound): 13% @ 10 | IC50 (cloned human V2 receptor): 0.76 µM

CN(C)CCC1CCN(C(=O)c2ccc(NC(=O)c3ccccc3-c3ccccc3)cc2)c2ccccc2S1 (stereo not drawn) [Compound 11, 2-(2-Dimethylaminoethyl)-5-(4-(2-phenylbenzoylamino)benzoyl)-1,5-benzothiazepine]
Receptor Binding (% Inh. @ concentration in μM) V1a (vasopressin V1a receptor; 10 μM test compound): 63% @ 10 | IC50 (cloned human V2 receptor): 0.43 µM

2-(2-Aminoethyl)-5-[4-(2-phenylbenzoylamino)benzoyl]-1,5-benzothiazepine [Compound 28]
Receptor Binding (% Inh. @ concentration in μM) V1a (vasopressin V1a receptor; 0.1 μM test compound): 19% @ .1 | Receptor Binding (% Inh. @ concentration in μM) V2 (cloned human V2 receptor; 0.1 μM test compound): 46% 0.1

Cc1ccccc1C(=O)Nc1ccc(S(=O)(=O)N2CCC(CCN(C)C)Sc3ccccc32)cc1 (stereo not drawn) [Compound 2, 2-(2-Dimethylaminoethyl)-5-(4-(2-methylbenzoylamino)-benzenesulfonyl]-1,5-benzothiazepine]
Receptor Binding (% Inh. @ concentration in μM) V1a (vasopressin V1a receptor; 25 μM test compound): 29% @ 25 | Receptor Binding (% Inh. @ concentration in μM) V2 (cloned human V2 receptor; 25 μM test compound): 34% @ 25

Cc1ccccc1C(=O)Nc1ccc(CN2C(=O)CC(CCO)Sc3ccccc32)cc1 (stereo not drawn) [Compound 22, 2-(2-Hydroxyethyl)-5-(4-(2-methylbenzoylamino)benzyl)-1,5-benzothiazepine-4-one]
Receptor Binding (% Inh. @ concentration in μM) V1a (vasopressin V1a receptor; 1 μM test compound): 54% @ 1 | Receptor Binding (% Inh. @ concentration in μM) V2 (cloned human V2 receptor; 1 μM test compound): 33% @ 1

2-(2-Methanesulfonylethyl)-5-(4-(2-methylbenzoylamino)benzoyl)-1,5-benzothiazepine [Compound 13]
IC50 (vasopressin V1a receptor): 0.3 µM | IC50 (cloned human V2 receptor): 0.2 µM

COC(=O)CC1CCN(C(=O)c2ccc(NC(=O)c3ccccc3-c3ccccc3)cc2)c2ccccc2S1 (stereo not drawn) [Compound 37, 2-Methyl-[5-(4-(2-phenylbenzoylamino)benzoyl)-1,5-benzothiazepine]acetate]
Receptor Binding (% Inh. @ concentration in μM) V1a (vasopressin V1a receptor; 0.1 μM test compound): 17% @ .1 | IC50 (cloned human V2 receptor): 0.05 µM

2-(2-Hydroxyethyl)-5-(4-(2-phenylbenzoylamino)-pyridinoyl)-1,5-benzothiazepine [Compound 40]
Receptor Binding (% Inh. @ concentration in μM) V1a (vasopressin V1a receptor; 0.1 μM test compound): 22% @ .1 | IC50 (cloned human V2 receptor): 0.03 µM

O=C(Nc1ccc(C(=O)N2CCC(CCO)Sc3ccccc32)cc1)c1ccccc1-c1ccccc1 (stereo not drawn) [Compound 17]
IC50 (vasopressin V1a receptor): 0.097 µM | IC50 (cloned human V2 receptor): 0.008 µM

Cc1ccccc1C(=O)Nc1ccc(C(=O)N2CCC(CCN(C)C)Sc3ccccc32)cc1 (stereo not drawn) [Compound 9]
IC50 (vasopressin V1a receptor): 1.5 µM | Receptor Binding (% Inh. @ concentration in μM) V2 (cloned human V2 receptor; 10 μM test compound): 63% @ 10

CNCCC1CCN(C(=O)c2ccc(NC(=O)c3ccccc3C)cc2)c2ccccc2S1 (stereo not drawn) [Compound 14]
Receptor Binding (% Inh. @ concentration in μM) V1a (vasopressin V1a receptor; 1 μM test compound): 50% @ 1 | Receptor Binding (% Inh. @ concentration in μM) V2 (cloned human V2 receptor; 1 μM test compound): 28% @ 1

2-(2-Hydroxyethyl)-5-(4-(2-phenylbenzoylamino)benzoyl)-1,5-benzothiazepine [Compound 26]
IC50 (vasopressin V1a receptor): 0.027 µM | IC50 (cloned human V2 receptor): 0.007 µM

Cc1ccccc1C(=O)Nc1ccc(C(=O)N2CCC(CCN)Sc3ccccc32)cc1 (stereo not drawn) [Compound 15, 2-(2-Aminoethyl)-5-[4-(2-methylbenzoylamino)benzoyl]-1,5-benzothiazepine]
Receptor Binding (% Inh. @ concentration in μM) V1a (vasopressin V1a receptor; 1 μM test compound): 42% @ 1 | Receptor Binding (% Inh. @ concentration in μM) V2 (cloned human V2 receptor; 1 μM test compound): 47% @ 1

CC(=O)Nc1ccc(S(=O)(=O)N2CCC(CCN(C)C)Sc3ccccc32)cc1 (stereo not drawn) [Compound 1]
Receptor Binding (% Inh. @ concentration in μM) V1a (vasopressin V1a receptor; 25 μM test compound): 14% @ 25 | Receptor Binding (% Inh. @ concentration in μM) V2 (cloned human V2 receptor; 25 μM test compound): 7% @ 25

COc1ccc(CNCCC2CC(=O)N(Cc3ccc(NC(=O)c4ccccc4C)cc3)c3ccccc3S2)c(OC)c1 (stereo not drawn) [Compound 8]
Receptor Binding (% Inh. @ concentration in μM) V1a (vasopressin V1a receptor; 10 μM test compound): 33% @ 10 | Receptor Binding (% Inh. @ concentration in μM) V2 (cloned human V2 receptor; 10 μM test compound): 32% @ 10

O=C(O)CCC1CCN(C(=O)c2ccc(NC(=O)c3ccccc3-c3ccccc3)cc2)c2ccccc2S1 (stereo not drawn) [Compound 31]
inhibition at 0.1 µM (vasopressin V1a receptor; [1]): 30% | IC50 (cloned human V2 receptor): 0.009 µM

O=C(Nc1ccc(C(=O)N2CCC(CCO)[S+]([O-])c3ccccc32)cc1)c1ccccc1-c1ccccc1 (stereo not drawn) [Compound 36, 2-(2-hydroxyethyl)-1-oxo-5-(4-(2-phenylbenzoylamino)-benzoyl)-1,5-benzothiazepine]
Receptor Binding (% Inh. @ concentration in μM) V1a (vasopressin V1a receptor; 0.1 μM test compound): 0 @ .1% | Receptor Binding (% Inh. @ concentration in μM) V2 (cloned human V2 receptor; 0.1 μM test compound): 38% @ .1

Cc1ccccc1C(=O)Nc1ccc(CN2C(=O)CC(CCN)Sc3ccccc32)cc1 (stereo not drawn) [Compound 7, 2-(2-Aminoethyl)-5-[4-(2-methylbenzoylamino)-benzyl]-1,5-benzothiazepine-4-one]
Receptor Binding (% Inh. @ concentration in μM) V1a (vasopressin V1a receptor; 10 μM test compound): 10% @ 10 | Receptor Binding (% Inh. @ concentration in μM) V2 (cloned human V2 receptor; 10 μM test compound): 4% @ 10

2-(2-Hydroxyethyl)-5-[2-chloro-4-(2-methyl-5-fluorobenzoylamino)benzoyl]-1,5-benzothiazepine [Compound 43]
Receptor Binding (% Inh. @ concentration in μM) V1a (vasopressin V1a receptor; 0.1 μM test compound): 4% @ .1 | IC50 (cloned human V2 receptor): 0.028 µM

CN(C)CCC1CCN(C(=O)c2ccc(N)cc2)c2ccccc2S1 (stereo not drawn) [Compound 12]
Receptor Binding (% Inh. @ concentration in μM) V1a (vasopressin V1a receptor; 10 μM test compound): 35% @ 10 | Receptor Binding (% Inh. @ concentration in μM) V2 (cloned human V2 receptor; 10 μM test compound): 6% @ 10
